# From a melting point compilation (Tetko et al.; mined from patent text by program, amines drawn as free bases though some values may be those of a salt)
row,melting point [°C],SMILES
1,172,CCOC(=O)C=CN1C(C)(C)CC(N(C=O)CCCCCCN(C=O)C2CC(C)(C)N(C=CC(=O)OCC)C(C)(C)C2)CC1(C)C
2,91 to 92,Cc1oc(-c2ccco2)nc1COc1ccc(CO)cc1
3,93 to 99,CCc1c(-c2ccccc2)c2c(COCCCN3CCCCC3)cc3c(O)ccc1n32
4,205 to 206,CC(C)c1cc(C(C)C)c2c(c1)C1(O)C(=O)c3ccccc3C1(O)O2 (stereo unspecified)
5,149 to 151,Cn1c(C(F)(F)F)c(I)c(=O)n(C)c1=O
6,122 to 125,Cc1cc(SC2=C(O)CC(CCc3cccnc3)(C(C)C)OC2=O)c(C(C)(C)C)cc1CO (stereo unspecified)
7,240 to 242,COc1cc2c(cc1O)C(=O)C1c3c(cc(OC(C)C)c(OC)c3-2)CCN1C (stereo unspecified)
8,138 to 139,Cc1c(CO)c(CO)c2sc3ccccc3n12
9,76 to 79,CC(=O)CN1CCc2c(c(=O)oc3cc(C(C)C)ccc23)C1
10,125 to 130,CN1C(=O)CC[C@]2(C)c3ccc(-c4c(F)cccc4F)cc3CC[C@@H]12
11,120 to 122,COc1cc2c(c(Cl)c1Cl)C(=O)C(CCCCl)(CCC(C)=O)C2 (stereo unspecified)
12,42,CCn1ncnc1COc1nn2c(-c3c(F)ccc(F)c3F)nncc2c1C(C)(C)C
13,152 to 155,COC(=O)c1ccc(C(=O)NCc2cc(O)cc(O)c2)cc1Cl
14,98 to 102,Oc1cc2ccccc2c(Br)c1O
15,175,CC1=CC(=O)c2cc(O)ccc2C1=O
16,157,CCOC(=O)C(C#N)=Cc1ccc(NC(=O)CC[Si](C)(C)C)cc1
17,134 to 136,CCCCCCN(Cc1cccnc1)C(Nc1cc(C(C)(C)C)c(O)c(C(C)(C)C)c1)=C1C(=O)OC(C)(C)OC1=O
18,151 to 152,CCCC(OC)c1ccc(Cl)c2nc3n(c12)CCCN3c1c(C)cc(Cl)cc1Cl (stereo unspecified)
19,106 to 108,Cc1nc(C(=O)NCCO[N+](=O)[O-])co1
20,> 260,COc1ccc(C(=O)Nc2c(Cl)cncc2Cl)c2c1oc1ccc(NCC(=O)O)cc12
21,148,CC(=O)OC1CSC(Oc2ccccc2[N+](=O)[O-])C(OC(C)=O)C1OC(C)=O (stereo unspecified)
22,96 to 99,CCCn1cc(Cc2ccc(C(=O)NS(=O)(=O)c3ccccc3Br)cc2OC)c2cc(CCC(C)C(=O)N(C)C)ccc21 (stereo unspecified)
23,113 to 115,COC[C@@H](O)[C@@H](O)[C@H](OC)[C@@H](O)C=O
24,276 to 278,CC(C)(C)C(=O)c1c[nH]c2ncc(-c3ccccn3)nc12
25,290 to 295,CNc1nc2ccc(C3=NNC(=O)NC3C)cc2s1 (stereo unspecified)

row,melting point [°C],SMILES
1,278 to 280,CCc1cc2c(=O)n3cc(C(N)=O)ccc3nc2s1
2,96 to 97.5,CS(=O)(=O)N(CCCl)N(C(=O)NCCCl)S(C)(=O)=O
3,284 to 286,CN(C)C(=O)c1nc2cnc3ccccc3c2[nH]1
4,175 to 176,Cc1cccc2c1nc(-c1ccc3ccccc3c1)n2Cc1c(F)cccc1F
5,248 to 251,Cc1cccc(C(=O)NC(C)C)c1NC(=O)c1cnc(C(F)(F)F)nc1C
6,180 to 182,O=C1CCC(N2C(=O)c3ccc(CNC(=O)c4ccco4)cc3C2=O)C(=O)N1 (stereo unspecified)
7,42 to 48,O=C(O)CCCC/C=C(\c1ccc(-c2nc(C(=O)NCCCCCOc3ccccc3)co2)cc1)c1cccnc1
8,97 to 100,COc1cc(C)c2c(Cl)c(OC)ccc2n1
9,127 to 129,Cc1ccccc1C(=O)c1ccc(Nc2ccccc2NC(=O)CO)cc1Cl
10,154 to 156,NC(=S)CN1CCCC1=S
11,134,N#CCc1nc2c(s1)Cc1cc(Cl)ccc1-2
12,> 300,O=C(O)c1cc(-c2ccncc2)c[nH]c1=O
13,165 to 167,N#Cc1cnn(-c2c(Cl)cc(C(F)(F)F)cc2Cl)c1N
14,189 to 192,CCP(=O)(O)CC(=O)CN
15,133,CC(=O)SCC(C)C(=O)NC(CCCNC(=N)N)C(=O)O (stereo unspecified)
16,80 to 83,CCOC(=O)c1ccc(NCCCc2ccccc2)cc1
17,125 to 127,O=C(/C=C/c1ccccc1)NCCC1CCN(Cc2ccccc2)CC1
18,176 to 178,CC(=O)SCC(Cc1ccccc1)C(=O)Nc1ccc(N2CCCC2)c(C(=O)O)c1 (stereo unspecified)
19,195 to 196,Clc1nc(-n2cnc(-c3ccccc3)c2-c2ccccc2)c2ccccc2c1-c1ccccc1
20,41 to 45,C=CCc1cc(C)c2c(c1O)C(=O)CC2
21,217 to 220,Cc1nc2cc(Sc3cccc4cnccc34)c([N+](=O)[O-])cc2s1
22,148 to 158,COC(=O)C1=C(C)NC(C)=C(C(=O)OCC(C)C)C1c1cccc2nonc12 (stereo unspecified)
23,110 to 112,CCOC(=O)Nc1nc(CC(=O)OC)ns1
24,191 to 197,O=c1c2c([nH]n1-c1c(F)cc(Cl)c3nc(Cl)sc13)CCCC2
25,73,CCOC(=O)c1c(Cl)nc2ccsc2c1Cl

row,melting point [°C],SMILES
1,270,COc1ccc2oc(N)c(C(N)=O)c(=O)c2c1
2,92 to 93,Cc1cccc(Cl)c1OC1CN(C(c2ccccc2)c2ccccc2)C1
3,104,CC(C)(C)C1c2ccccc2CCC1O (stereo unspecified)
4,105 to 106,COC(=O)c1cccc(-c2nc(COc3ccc(CO)cc3)c(C)o2)c1
5,224 to 225,Fc1ccc(-n2ccc3cc(-c4nnn[nH]4)ccc32)cc1
6,158 to 159,O=C(C=C1OC(=O)c2ccccc21)c1ccc(Cl)cc1
7,149 to 151,CC1(C)CC(OC(=O)c2ccccc2C(=O)OC2CC(C)(C)N(OC3CCCCC3)C(C)(C)C2)CC(C)(C)N1OC1CCCCC1
8,168 to 169,Cn1c(CNCC(C)(C)S(C)(=O)=O)cc2cc(NC(=O)c3ccc(OCC4CC4)cc3)ccc21
9,> 250,O=S(=O)(O)CCCNc1cccc(O)c1
10,94 to 95,COC(=O)c1ccc2sccc2c1O
11,109 to 111,O=C(NCCCc1c[nH]c2ccc(OCc3ccc4ccccc4n3)cc12)OCc1ccccc1
12,182 to 183,CC#CC(=O)c1c(-c2ccc(F)cc2)nn2c(Cl)cccc12
13,174 to 175,CS(=O)(=O)Nc1ccc([N+](=O)[O-])cc1C=C1CCCCC1
14,112 to 114,Cn1ncc2c(c1=O)C(Cc1ccccc1)NCCS2 (stereo unspecified)
15,183 to 184,Cc1cccc2cc3c(=O)n(Cc4ccccn4)cc(C(=O)NCCN(C)C)c3nc12
16,158 to 160,O=C(NC1CCCCC1)ON1C(=O)CCC1=O
17,156 to 157,COc1cc(Cl)c2nc(-c3ccc(OC)c(F)c3)cc(Br)c2c1
18,140,CCCCc1ncc(CSC(CC(=O)O)C(=O)O)n1Cc1ccc(C(=O)O)cc1 (stereo unspecified)
19,187 to 188,O=C1NC(=O)C(CC#Cc2ccc(Cl)cc2)(Sc2nc3cc(Cl)ccc3s2)S1 (stereo unspecified)
20,125 to 126,O=C(CCc1oc(-n2cnc3ccccc32)nc1-c1ccc(Cl)cc1)N1CCSC1
21,248 to 249,Cc1nc2c(c3c1[nH]c1ccccc13)C(=O)CC(C(C)C)C2 (stereo unspecified)
22,74 to 76,Cc1oc(-c2ccccc2)nc1CCSc1ccc(C=O)cc1
23,104 to 106,CC(C)c1ccc(-c2ccc(-c3ccccc3)s2)s1
24,> 250,Cc1ccc(-c2[nH]c(-c3ccc4ccccc4c3)nc2C(=O)Nc2nccs2)cc1
25,210 to 212,Nc1ccccc1Oc1cccc2c1NC(=O)C2

row,melting point [°C],SMILES
1,78 to 80,CC(=O)Nc1nc(CCc2ccc(N)cc2)c(C(=O)NCc2ccc(S(C)(=O)=O)cc2)s1
2,204,Oc1ncnc2c1cnn2C1OC(COCc2ccccc2)C(OCc2ccccc2)C1OCc1ccccc1 (stereo unspecified)
3,134 to 136,COC1=NS(=O)N=C1NCCCCC#CCN1CCCCC1 (stereo unspecified)
4,147 to 148,COc1cc2c(cc1O)C(=O)CCC2
5,146 to 149,CN(C)c1ccc([N+](=O)[O-])cn1
6,260 to 261,COCCCn1c(C(N)=O)cc2c3c(c(-c4ccccc4Cl)cc21)C(=O)NC3=O
7,99 to 102,COc1cc(OC)nc(Oc2cccc3c2C(=O)OC3OCC#N)n1 (stereo unspecified)
8,157 to 161,CC(=O)OCc1ccc2oc(=O)c(C(=O)Oc3cc(F)ccc3[N+](=O)[O-])cc2c1
9,152,Cc1cc(Cn2nc(-c3ccccc3)oc2=O)cc(C(C)(C)C)c1O
10,187 to 192,COc1ccc(-c2ccncc2)cc1-c1ccc2nonc2c1
11,70 to 73,Cc1cc(C)cc(C(=O)N2CCN(C(=O)CN(CCO)C3CCN(Cc4ccccc4)CC3)C(c3ccc(Cl)c(Cl)c3)C2)c1 (racemic)
12,211,COc1cccc(-c2nc(N)ncc2-c2ccc(=O)n(C(C)C)n2)c1
13,157 to 159,Oc1ccc2c(c1)CC(NCC(O)c1ccccc1)CC2 (stereo unspecified)
14,265,CNc1ccc2c(c1N)C(=O)OC21c2cc(F)c(O)cc2Oc2cc(O)c(F)cc21
15,266 to 267,Oc1cc(-c2ccccc2)ncn1
16,215 to 218,CC(=NO)c1ccc2c(c1)CCc1c(O)cc(O)cc1S2
17,257 to 258,COc1ccc2c(C3=C(c4cn(C)c5cc(OC)ccc45)C(=O)NC3=O)cn(C)c2c1
18,139 to 142,CCOC(=O)c1cc(NC(=O)C(N)Cc2ccccc2)c[nH]1 (stereo unspecified)
19,125 to 128,CCOc1ccc(-c2nc(OC)ccc2N2CCN(c3ccc(OC)cc3)CC2)cc1
20,> 250,CS(=O)(=O)c1ccc(N2CCc3[nH]c4c(cnc5cc(Cl)ccc54)c3C2)cc1
21,146 to 148,Cc1cc(C)c(O)cn1
22,235 to 236,O=C(c1cc(C(F)(F)F)cc(C(F)(F)F)c1)N1CCC2(CC1)C(=O)NCN2c1cccc(Cl)c1
23,220 to 222,CC(C)(C)OCc1cccc(-c2ccc3nc(-c4cccnc4)cn3c2)c1
24,172 to 173,COc1ccc(N2CCOCC2)c2sc(NC(=O)C[C@H]3CC[C@@H](OC(C)=O)C3)nc12 (relative stereo)

row,SMILES,melting point [°C]
1,O=C(Nc1ccc(Cl)c(Cl)c1)ONC1=Nc2ccc([N+](=O)[O-])cc2C(c2ccccc2Cl)=NC1,190 to 192
2,Nc1ccc(I)cc1C(=O)c1ccccc1Cl,120 to 122
